Measurements as given in US7642277B2, “Non-nucleoside reverse transcriptase inhibitors” (Boehringer Ingelheim International GmbH, priority 2002, dated 2010).
Read-outs that look alike come from different tables or passages of the source.

Key:
[1] = target: T1, HIV-1 RT resistant mutant K103N/Y181C (Human immunodeficiency virus type 1 group M subtype B, UniProt P04585, K690N/Y768C); assay: Reverse transcriptase (RT) enzymatic assay (IC50), PicoGreen fluorescence, resistant mutant; type: biochemical
T1 construct: The reverse transcriptase (RT) enzyme assay has been adapted to a 96-well microtiter plate format

[2] = target: T2, HIV-1 RT enzyme (wild type) (Human immunodeficiency virus type 1 group M subtype B, UniProt P04585); assay: Reverse transcriptase (RT) enzymatic assay (IC50), PicoGreen fluorescence, wild type; type: biochemical
T2 construct: The reverse transcriptase (RT) enzyme assay has been adapted to a 96-well microtiter plate format
How it was run: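 Enzyme at ≈10 nM in 50 mM Tris/HCl pH 7.8 with 60 mM NaCl, 2 mM MgCl2, 6 mM DTT, 2 mM GSH, 0.02% Chaps; 15 min preincubation with compound at room temperature, then substrate added and run 50 min at 37 °C. EDTA quench; product DNA read by PicoGreen fluorescence.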

HIV-1 (wild type) = assay: P24 cellular assay (EC50), data identified with * in Table 9, wild type; type: cell-based; details: Human immunodeficiency virus 1
Excerpt: (§1) P24 Cellular Assay (EC50) (Data Identified with * in Table 9).
(§2) The p24 assay is as described in WO 01/96338, the contents of which are herein incorporated by reference.
(§3) The results are listed in Table 9 as IC50(nM) and EC50 (nM).
(§4) Table legend: A=>100; B=100-50; C=<50; NT=not tested

[3] = tested on: HIV-1 resistant mutant K103N/Y181C; assay: P24 cellular assay (EC50), data identified with * in Table 9, resistant mutant; type: cell-based; details: Human immunodeficiency virus 1, read-out: EC50 K103N/Y181C
Excerpt: as §1, §2, §3, §4

[4] = RT enzymatic assay, wild type, read-out: IC50 WT

SMILES | IC50 [1] | IC50 [2] | EC50 (HIV-1 (wild type)) | EC50 [3] | IC50 [2, 4]
O=C(CSc1nnnn1-c1ccccc1F)Nc1ccccc1[N+](=O)[O-] [Entry 113] | > 100 nM | < 50 nM | < 50 nM |  | 
O=C(CSc1nnnn1-c1cccc2c1CCCC2)Nc1ccccc1[N+](=O)[O-] [Entry 104] | > 100 nM | < 50 nM | < 50 nM | > 100 nM | 
O=C(CSc1nnnn1-c1cccc2ccccc12)Nc1cccc(F)c1F [Entry 230] |  | 50 to 100 nM | 50 to 100 nM | > 100 nM | 
Cc1cc(Br)cc(C)c1-n1nnnc1SCC(=O)Nc1ccccc1[N+](=O)[O-] [Entry 140] | > 100 nM | < 50 nM | < 50 nM | < 50 nM | 
CC(C)Oc1cc(-n2nnnc2SCC(=O)Nc2ccccc2[N+](=O)[O-])c(Cl)cc1Cl [Entry 134] | > 100 nM | < 50 nM | < 50 nM | > 100 nM | 
Cc1ccc(F)cc1-n1nnnc1SCC(=O)Nc1ccccc1[N+](=O)[O-] [Entry 135] | > 100 nM | < 50 nM | < 50 nM | > 100 nM | 
Cc1ccccc1-n1nnnc1SCC(=O)Nc1ccccc1[N+](=O)[O-] [Entry 109] | > 100 nM | 50 to 100 nM | < 50 nM | > 100 nM | 
COc1ccc(Cl)cc1-n1nnnc1SCC(=O)Nc1ccccc1[N+](=O)[O-] [Entry 136] | > 100 nM | 50 to 100 nM | < 50 nM | > 100 nM | 
O=C(CSc1nnnn1-c1ccc2ccccc2c1)Nc1ccccc1[N+](=O)[O-] [Entry 103] | > 100 nM | < 50 nM | < 50 nM | > 100 nM | 
S=C(CSc1nnnn1-c1cccc2ccccc12)Nc1ccccc1Cl [Entry 308] |  | > 100 nM | 50 to 100 nM |  | 
O=C(CSc1nnnn1-c1cccc2ccccc12)Nc1ccc(Cl)cc1Cl [Entry 234] |  | 50 to 100 nM | 50 to 100 nM | > 100 nM | 
N#Cc1ccc(NC(=O)CSc2nnnn2-c2cccc3ccccc23)c(Cl)c1 [Entry 239] | > 100 nM | 50 to 100 nM | < 50 nM | > 100 nM | 
O=C(CSc1nnnn1-c1ccccc1Cl)Nc1ccccc1[N+](=O)[O-] [Entry 114] | > 100 nM | < 50 nM | < 50 nM | > 100 nM | 
Cc1ccc(-n2nnnc2SCC(=O)Nc2ccccc2[N+](=O)[O-])c(C)c1 [Entry 125] | > 100 nM | < 50 nM | < 50 nM | > 100 nM | 
O=C(CSc1nnnn1-c1cccc2ccccc12)Nc1ccc(C(=O)O)cc1Cl [Entry 236] | > 100 nM | 50 to 100 nM | > 100 nM | > 100 nM | 
O=C(CSc1nnnn1-c1ccccc1C(F)(F)F)Nc1ccccc1[N+](=O)[O-] [Entry 111] | > 100 nM | 50 to 100 nM | < 50 nM | > 100 nM | 
CN(C)c1ccc(-n2nnnc2SCC(=O)Nc2ccccc2[N+](=O)[O-])c2ccccc12 [Entry 102] | > 100 nM | < 50 nM | < 50 nM |  | 
O=C(CSc1nnnn1-c1cccc2ccccc12)Nc1ccccc1Br [Entry 209] |  | < 50 nM | > 100 nM |  | 
COc1cc(-n2nnnc2SCC(=O)Nc2ccccc2[N+](=O)[O-])c(Cl)cc1Cl [Entry 133] | > 100 nM | < 50 nM | < 50 nM | > 100 nM | 
O=C(CSc1nnnn1-c1cccc2ccccc12)Nc1ccccc1I [Entry 210] |  | 50 to 100 nM | < 50 nM | > 100 nM | 
OC(CCSc1nnnn1-c1cccc2ccccc12)c1ccccc1Cl (stereo not drawn) [Entry 317, 5-{{3-(2-Chlorophenyl)-3-hydroxypropyl}thio}-1-(1-naphthalenyl)-1H-tetrazole] | > 100 nM | 50 to 100 nM | < 50 nM |  | 
Cc1ccc(-n2nnnc2SCC(=O)Nc2ccccc2[N+](=O)[O-])c(Cl)c1 [Entry 129] | > 100 nM | < 50 nM | < 50 nM | < 50 nM | 

SMILES | IC50 [1] | IC50 [2] | EC50 (HIV-1 (wild type)) | EC50 [3] | IC50 [2, 4]
Cc1cc(C)c(-n2nnnc2SCC(=O)Nc2ccccc2Cl)c(C)c1 [Entry 421] | > 100 nM |  | < 50 nM | > 100 nM | < 50 nM
O=C(CSc1nnnn1-c1cccc(Cl)c1Cl)Nc1ccccc1[N+](=O)[O-] [Entry 123] | > 100 nM |  |  | 50 to 100 nM | < 50 nM
Cc1cccc(Cl)c1-n1nnnc1SCC(=O)Nc1ccccc1[N+](=O)[O-] [Entry 139] | > 100 nM | < 50 nM | < 50 nM |  | 
Cc1cccc(-n2nnnc2SCC(=O)Nc2ccccc2[N+](=O)[O-])c1C [Entry 122] | > 100 nM | < 50 nM | < 50 nM | > 100 nM | 
Cc1cc(C)c(-n2nnnc2SCC(=O)Nc2ccccc2[N+](=O)[O-])c(C)c1 [Entry 141] | > 100 nM | > 100 nM | < 50 nM | < 50 nM | 
O=C(CSc1nnnn1-c1ccc2c(c1)CCC2)Nc1ccccc1[N+](=O)[O-] [Entry 105] | > 100 nM | < 50 nM | < 50 nM | > 100 nM | 
O=C(COc1ccccc1-c1cccc2ccccc12)Nc1ccccc1[N+](=O)[O-] [Entry 409] |  |  | > 100 nM |  | > 100 nM
COc1ccc(-n2nnnc2SCC(=O)Nc2ccccc2[N+](=O)[O-])c(C)c1 [Entry 127] | > 100 nM | < 50 nM | < 50 nM | > 100 nM | 
OC(CNc1ccccc1Cl)CSc1nnnn1-c1cccc2ccccc12 (stereo not drawn) [Entry 330, 5-{{3-{(2-Chlorophenyl)amino}-2-hydroxypropyl}thio}-1-(1-naphthalenyl)-1H-tetrazole] | > 100 nM | 50 to 100 nM | < 50 nM |  | 
COC(=O)c1ccc(NC(=O)CSc2nnnn2-c2cccc3ccccc23)c(Cl)c1 [Entry 235] | > 100 nM | < 50 nM | < 50 nM |  | 
CC(Sc1nnnn1-c1cccc2ccccc12)C(=O)Nc1ccccc1[N+](=O)[O-] (stereo not drawn) [Entry 301] | > 100 nM | 50 to 100 nM | < 50 nM | > 100 nM | 
CSc1ccccc1-n1nnnc1SCC(=O)Nc1ccccc1[N+](=O)[O-] [Entry 116] | > 100 nM | < 50 nM | < 50 nM |  | 
O=C(CSc1nncn1-c1cccc2ccccc12)Nc1ccccc1[N+](=O)[O-] [Entry 402, 2-{{4-(1-Naphthalenyl)-4H-1,2,4-triazol-3-yl}thio}-N-(2-nitrophenyl)acetamide] | > 100 nM |  | < 50 nM | > 100 nM | 50 to 100 nM
COC(=O)c1ccccc1-n1nnnc1SCC(=O)Nc1ccccc1[N+](=O)[O-] [Entry 117] | > 100 nM |  |  | > 100 nM | < 50 nM
COc1ccccc1-n1nnnc1SCC(=O)Nc1ccccc1[N+](=O)[O-] [Entry 115] | > 100 nM | 50 to 100 nM | < 50 nM | > 100 nM | 
Cc1cc(Cl)ccc1-n1nnnc1SCC(=O)Nc1ccccc1[N+](=O)[O-] [Entry 128] | > 100 nM | > 100 nM | < 50 nM | > 100 nM | 
O=C(CSc1nnnn1-c1cccc2ccccc12)Nc1ccccc1[N+](=O)[O-] [Entry 101, 2-{{1-(1-Naphthalenyl)-1H-tetrazol-5-yl}thio}-N-(2-nitrophenyl)acetamide] |  |  | < 50 nM | > 100 nM | 
Cc1ccc(-n2nnnc2SCC(=O)Nc2ccccc2[N+](=O)[O-])c(Br)c1 [Entry 130] | > 100 nM | < 50 nM | < 50 nM |  | 
Clc1ccccc1[C@@H]1C[C@H]1CSc1nnnn1-c1cccc2ccccc12 (relative stereo) [Entry 316, trans-5-{{{2-(2-Chlorophenyl)cyclopropyl}methyl}thio}-1-(1-naphthalenyl)-1H-tetrazole] | > 100 nM | 50 to 100 nM | < 50 nM |  | 
OC(CSc1nnnn1-c1cccc2ccccc12)Cc1ccccc1Cl (stereo not drawn) [Entry 318, 5-{{3-(2-Chlorophenyl)-2-hydroxypropyl}thio}-1-(1-naphthalenyl)-1H-tetrazole] | > 100 nM | 50 to 100 nM | < 50 nM |  | 
Cc1cccc(-n2nnnc2SCC(=O)Nc2ccccc2[N+](=O)[O-])c1 [Entry 118] | > 100 nM | 50 to 100 nM | < 50 nM | > 100 nM | 
Cc1c(Cl)cccc1-n1nnnc1SCC(=O)Nc1ccccc1[N+](=O)[O-] [Entry 124] | > 100 nM | < 50 nM | < 50 nM | 50 to 100 nM | 
